# According to a melting point compilation (Tetko et al.; mined from patent text by program, amines drawn as free bases though some values may be those of a salt):
row,Structure (SMILES),melting point
1,COc1ccc(F)cc1C(C)(C)CC(O)(Cn1cnc(=O)c2ccccc21)C(F)(F)F (stereo not drawn),118 to 121 °C
2,Brc1ccc(-c2cn([C@H]3CN4CCC3CC4)nn2)s1,146 °C
3,CCCCC[C@H]1CC[C@H](c2ccc(CC#N)cc2)CC1,53 °C
4,CCOC(=O)c1oc(SC)c2c1CCC(Br)C2=O (stereo not drawn),130 to 131 °C
5,NC(=S)NN=C(CCCCl)c1ccc(O)cc1,126 to 129 °C
6,CSc1nc2ccnn2c(OCc2ccccc2)c1C#N,194 °C
7,COCCOC(=O)C(=O)Nc1nc(-c2ccccc2)cs1,118 to 120 °C
8,CCOc1nn(C(=O)NS(=O)(=O)c2c(Cl)cccc2SC)c(=O)n1C,144 °C
9,CC(=NNc1ccc([N+](=O)[O-])cc1)N1CCOCC1,176 °C
10,O=[N+]([O-])c1ccc2c(c1)C1OC1CCO2 (stereo not drawn),121 to 123 °C
11,CCN(C(=O)OC(C)(C)C)C1CC=C(c2c[nH]c3ccc(N)cc23)CC1 (stereo not drawn),87 to 89 °C
12,CSc1c(F)ccc2onc(OCCNC(=O)OC(C)(C)C)c12,91 to 92 °C
13,O=S1(=O)CCC(c2ccc(N3CCN(CC(O)(Cn4cncn4)c4ccc(Cl)cc4Cl)CC3)cc2)CN1 (stereo not drawn),68 to 70 °C
14,CCNC(=O)[C@@H]1C[C@]2(NC(=O)N(CCCCl)C2=O)c2cc(F)ccc2O1,95 to 97 °C
15,COc1cc(-c2ncc(C(F)(F)F)cc2Cl)c(F)cc1Cl,105 to 106 °C
16,Cc1coc2c1C(=O)CC(c1cccc(Cl)c1Cl)C2 (stereo not drawn),116 to 117 °C
17,CCCCCCCCOC(=O)N(C[C@H](O)[C@@H](O)[C@H](O)[C@H](O)CO)C(C)CC (stereo partly drawn),101 °C
18,O=C(N(Cc1cccs1)CC1CCCCC1)C12CC3CC(CC(C3)C1)C2,112 to 116 °C
19,COc1nc2cc([N+](=O)[O-])c(C)c(C(=O)N(C)CC(=O)OC(C)(C)C)c2nc1OC,102 to 105 °C
20,S=C1Nc2c(Cl)cccc2CS1,125 to 126 °C

row,Structure (SMILES),melting point
1,CCOC(=O)c1c(C(F)(F)F)nc(C(F)F)c(C#N)c1CC,38 to 40 °C
2,CCCCN(C)C(=O)c1ccc(S(=O)(=O)CCCn2c(CCC)nc3c(N)nc(C)c(C)c32)cc1,127 to 129 °C
3,COc1cc(N2CCC(N3CCN(C)CC3)CC2)ccc1Nc1ncc2ccc(Br)n2n1,171 to 173 °C
4,Nc1nc(F)c(C(F)(F)F)cc1Cl,101 to 103 °C
5,CNC(=O)Nc1ccc(C2=NNC(=O)CC2C)cn1 (stereo not drawn),257 to 259 °C
6,COc1ccnc(CCc2nc3cc(-c4ccc(OC)c(OC)c4)cnc3[nH]2)c1,185 to 186 °C
7,Cc1ccc2c(c1)c(N1CCN(C(=O)c3cccs3)CC1)c(C#N)c(=O)n2C,214 °C
8,Fc1cc(F)c2c(c1)C[C@@H](n1c(CN3CCOCC3)c[nH]c1=S)CC2,182 to 184 °C
9,COc1cc(OC)c2c(c1)c(C(=O)C(=O)NC1=CC(=O)OC1)cn2Cc1ccc(Cl)cc1,280 to 282 °C
10,O=C(NCCCCCCOC(=O)N1CCC(OC(=O)NC2CCCCC2)CC1)Oc1ccc(Oc2ccccc2)cc1,138 to 142 °C
11,Cc1c(Cl)cccc1S(=O)(=O)Nc1nc(C(C)(C)C)cs1,178 °C
12,COC(=O)[C@H](C)NC(=O)C(=O)Nc1ccccc1C(C)(C)C,60.1 to 62.1 °C
13,CCOC(=O)C(CC)n1c(NC(=O)c2cccs2)nc2cc(C(=O)N(C)C3CCCCC3)ccc21 (stereo not drawn),82 to 84 °C
14,NS(=O)(=O)c1ccc2nc(C(F)(F)F)[nH]c(=O)c2c1,311 to 314 °C
15,COc1cc(C)nc(NC(=O)NS(=O)(=O)c2cccc3c2OC(C)(C)O3)n1,180 to 183 °C
16,COc1ccc2cc(C(C)C(=O)N3CSCC3C(=O)O)ccc2c1 (stereo not drawn),165 to 168 °C
17,O=C(O)[C@@H]1C[C@@H](O)CN1C(=O)OCc1ccccc1,106 to 107 °C
18,CC1NC(=O)NN=C1c1ccc(Cl)c(N)c1 (stereo not drawn),226 to 228 °C
19,CCn1cc(C(=O)O)c(=O)c2cc(F)c(N3CCC(CN)C3)c(F)c21 (stereo not drawn),219 to 221 °C
20,COc1ccc(Cc2cc(OC)c(OC)c(OC)c2)cc1,66 to 67 °C

row,Structure (SMILES),melting point
1,Cc1noc(-c2ccccc2)c1/C=C/C(=O)O,173 to 174 °C
2,CCNc1nc(CC)c(C(=O)c2ccc(Cl)c([N+](=O)[O-])c2)s1,149 to 152 °C
3,O=C1Nc2ccccc2SC1CCCCCl (stereo not drawn),111 to 112 °C
4,Cc1c(Br)cccc1N1Cc2cc(C(C)(C)C)sc2C1=O,185 to 186 °C
5,COc1ccc(-c2nnc(N3CCC(O)CC3)nc2-c2ccc(OC)cc2)cc1,105 to 108 °C
6,C=CC(=O)OCCCCCCCCOc1ccc(-c2ccc(OCCCCCCCCOC(=O)C=C)c(F)c2F)c(F)c1F,60.5 to 61.4 °C
7,Cc1cc(C(=O)Cl)ccc1[N+](=O)[O-],29 to 30 °C
8,CC(=O)Nc1ccc(Cl)c2c1C(=O)CCN2C(C)=O,175 to 177 °C
9,O=C(N[C@@H](CO)C(=O)NCCCOC1CCCCC1)c1ccc(C(=O)c2cccnc2)cc1,57 to 62 °C
10,COC(=O)CC(c1ccc(OC)c(OC)c1)N1C(=O)C2CCCCC2C1=O (stereo not drawn),92.5 to 95 °C
11,COC(=O)CC(C#N)Cc1ccc(Cl)cc1Cl (stereo not drawn),86 to 88 °C
12,Cc1cc(NS(=O)(=O)c2ccc(S(N)(=O)=O)cc2)c2[nH]cc(Br)c2c1,196 to 197 °C
13,CC(=O)OC1CSC(Oc2cccc3onc(C)c23)C(OC(C)=O)C1OC(C)=O (stereo not drawn),155 to 158 °C
14,COc1ccc2c(c1OC)Oc1cccc3cncc-2c13,195 to 196 °C
15,CCCOc1ccc2c(c1)[C@@H](c1ccc(OC)cc1OCCO)[C@H](C(=O)O)[C@H]2c1ccc2c(c1)OCO2,125 to 127 °C
16,N#Cc1c[nH]c2cc(N3CCC(N4CCCC4)CC3)c([N+](=O)[O-])cc2c1=O,232 to 235 °C
17,CC(C)(O)C1Cc2cc3ccc(=O)oc3cc2O1 (stereo not drawn),186 to 187 °C
18,CCOC(=O)c1ccc(N(C)C)cc1C(=O)OCC,62 to 64 °C
19,NS(=O)(=O)c1ccc(-c2c(F)c(F)c(F)c(F)c2-c2ccc(F)cc2)cc1,202 to 203 °C
20,COc1cc(C(=O)OCC2(N(C)C)CCSc3ccccc32)cc(OC)c1OC (stereo not drawn),146 to 148 °C

# More lines, now with the values ahead:
row,melting point,Structure (SMILES)
1,264 to 265 °C,COC(=O)c1c(C(=O)OC)c(-c2ccc(Cl)cc2)n2c1Cc1c(n(C)c3ccccc13)C2
2,59 to 65 °C,CC(C)(C#N)NC(=O)c1ccccc1Cl
3,274 to 275 °C,CCc1c(-c2ccc(O)cc2)c2cc(C(C)=O)c3cc(O)cc1n32
4,223 to 224 °C,CCOc1cccc2cc(C(=O)NNS(=O)(=O)c3ccccc3)oc12
5,150 to 152 °C,COCCOCn1cc(C(=O)NCc2ccc(Cl)cc2)c(=O)c2cc(CN3CCOCC3)ccc21
6,127 to 129 °C,O=C(c1ccccc1)N1CC(c2ccccc2)c2ccccc21 (stereo not drawn)
7,137 to 139 °C,Cc1cc(C(=S)NCc2cccc([N+](=O)[O-])c2)c(OCC(=O)O)cc1F
8,242 to 244 °C,CSc1nc(-c2ccc(S(C)(=O)=O)cc2)n(-c2ccc(C)cc2)c(=O)c1C#N
9,244 to 246 °C,CNC(=O)c1ccccc1Nc1nc(Nc2ccc3c(c2)CCCC(=O)N3C)ncc1Cl
10,59 to 60 °C,Nc1ccc(Sc2ccccc2)cc1Cl
11,191 to 192 °C,COC(=O)c1cc(NC(=O)C(F)(F)F)c2cc(Cc3ccc(F)cc3)cnc2c1O
12,160 to 161 °C,O=C(NCCO)c1ccc(-c2cccc3cc(Cc4cccc(C(F)(F)F)c4)sc23)nc1
13,144 to 146 °C,S=C(Nc1ccc(Cl)c(Cl)c1)Nc1ncccc1OCc1ccccc1
14,215 to 220 °C,COc1ccccc1NC(=O)Nc1nc(Nc2ccc(-c3ccccc3)cc2)nc(N(CCC(=O)O)Cc2ccc(Cl)c(Cl)c2)n1
15,89 to 91 °C,COc1cn([C@H](C)c2cccc3ccccc23)c(=O)o1
16,232 to 234 °C,O=C(CN1c2nc(-c3ccncc3)cc(=O)n2CCC12CC2)c1ccccc1
17,237 to 239 °C,Cn1cnc(COc2nn3c(-c4ccccc4)nnc3cc2-c2cccs2)n1
18,> 350 °C,NNC(=O)Nc1ccc(-n2ncn(-c3ccc(OCC(F)(F)C(F)F)cc3)c2=O)cc1
19,235 to 237 °C,Cc1ncc(-c2cccc(Nc3ncnc4c3CCOc3ccccc3-4)c2)n1C

row,melting point,Structure (SMILES)
1,78 to 80 °C,COC(=O)C(C)(C)OCC#Cc1cc(Cl)ccc1NS(=O)(=O)c1cc(C)cc(C)c1
2,150 to 151 °C,N#Cc1cc(C(F)(F)F)nn1-c1ccc(NC(=O)c2cccnc2F)cc1
3,177 to 178 °C,CCOC(=O)c1cn(C(C)C(=O)c2ccccc2)c2nc(-c3ccccc3)c(C)n2c1=O (stereo not drawn)
4,159 to 160 °C,COc1ccc(C)cc1NC(=O)Nc1ccc(N2CCN(C(=O)Nc3c(C)cccc3C(=O)O)CC2)cc1
5,195 to 196 °C,OC1(c2ccccc2)CNN=C1c1ccc(Cl)cc1 (stereo not drawn)
6,116 to 118 °C,OCCON=Cc1ccc(-c2ccccc2)cc1
7,181 to 182 °C,O=c1oc(-c2ccccc2)cc(O)c1Sc1cccc(Cl)c1
8,140 to 143 °C,Cc1ccc(NC(=O)c2cccnc2Oc2cccc(Cl)c2)cc1
9,> 300 °C,O=C(O)c1ccc(-c2cnc3c(c2)N(Cc2cc(F)ccc2F)CCN3)cc1
10,230 °C,N#Cc1ccc(N(Cc2ccc3c(c2)NS(=O)(=O)O3)n2ccnc2)cc1
11,167 to 169 °C,Cn1ccc2cc(Nc3cnccc3N)ccc21
12,195 to 196 °C,O=C(O)Cc1cnn(-c2ccc(Cl)cc2)c1-c1ccc(Cl)cc1
13,128 to 130 °C,COCCCOc1ccc(/C=C(\C)C(=O)O)c(Oc2ncc(Cl)cc2Cl)c1
14,182 to 184 °C,O=C1NC(=O)C(Cc2ccc(OCCON=Cc3cnc4ccccc4c3)cc2)S1 (stereo not drawn)
15,145 to 147 °C,Cc1noc(NS(=O)(=O)c2ccccc2-c2ccccc2)c1Br
16,149 to 151 °C,CNc1nc(-c2cccc(-c3ccc(C)c(C)c3)c2)c2cc(OC)c(OC)cc2n1
17,93 to 95 °C,O=C(O)c1cccc(C(CCc2ccc(Cl)cc2)CC(=O)c2ccccc2)c1 (stereo not drawn)
18,185 °C,Cn1cnnc1C(O)(c1ccc(Cl)cc1)c1ccc2c(c1)c(-c1cccc(Cl)c1)cc(=O)n2Cc1ccc(C#N)cc1 (stereo not drawn)
19,161 to 162 °C,Cc1cc(-c2ccc(O)cc2)ccc1C=O
